Reference: patent US8178694B2, “Heterocyclylaminoalkyl substituted benzimidazoles” (Tibotec Pharmaceuticals Ltd., priority 2005, dated 2012)

Experiments:
[1] = test system: Respiratory Syncytial Virus; assay: In vitro screening for activity against Respiratory Syncytial Virus (tetrazolium-based colorimetric assay, HeLa cells); type: cell-based; conditions: human respiratory syncytial virus, 168 h; protection against cytopathology caused by RSV in HeLa cells, MTT readout seven days after infection
Description: The percent protection against cytopathology caused by viruses (antiviral activity or EC50) achieved by tested compounds and their cytotoxicity (CC50) are both calculated from dose-response curves. The selectivity of the antiviral effect is represented by the selectivity index (SI), calculated by dividing the CC50 (cytotoxic dose for 50% of the cells) by the EC50 (antiviral activity for 50% of the cells).
Automated tetrazolium-based colorimetric assays were used for determination of EC50 and CC50 of test compounds. Flat-bottom, 96-well plastic microtiter trays were filled with 180 μl of Eagle's Basal Medium, supplemented with 5% FCS (0% for FLU) and 20 mM Hepes buffer. Subsequently, stock solutions (7.8× final test concentration) of compounds were added in 45 μl volumes to a series of triplicate wells so as to allow simultaneous evaluation of their effects on virus- and mock-infected cells. Five five-fold dilutions were made directly in the microtiter trays using a robot system. Untreated virus controls, and HeLa cell controls were included in each test. Approximately 100 TCID50 of Respiratory Syncytial Virus was added to two of the three rows in a volume of 50 μl. The same volume of medium was added to the third row to measure the cytotoxicity of the compounds at the same concentrations as those used to measure the antiviral activity. After two hours of incubation, a suspension (4×10^5 cells/ml) of HeLa cells was added to all wells in a volume of 50 μl. The cultures were incubated at 37° C. in a 5% CO2 atmosphere. Seven days after infection the cytotoxicity and the antiviral activity was examined spectrophotometrically. To each well of the microtiter tray, 25 μl of a solution of MTT (3-(4,5-dimethylthiazol-2-yl)-2,5-diphenyltetrazolium bromide) was added. The trays were further incubated at 37° C. for 2 hours, after which the medium was removed from each cup. Solubilization of the formazan crystals was achieved by adding 100 μl 2-propanol. Complete dissolution of the formazan crystals were obtained after the trays have been placed on a plate shaker for 10 min. Finally, the absorbances were read in an eight-channel computer-controlled photometer (Multiskan MCC, Flow Laboratories) at two wavelengths (540 and 690 nm). The absorbance measured at 690 nm was automatically subtracted from the absorbance at 540 nm, so as to eliminate the effects of non-specific absorption.

| Compound | EC50 [1] [µM] | melting point [°C] |
| --- | --- | --- |
| OCCc1ccncc1NCc1ccc2nc(NCCCN3CCOCC3)n(Cc3ncccc3O)c2c1 [h-3] | 0.447 | 142 |
| Cc1ccc(O)c(Cn2c(NCCCN3CCOCC3)nc3ccc(CNc4cnccc4CCO)cc32)n1 [g-3] | 0.0501 | 207 |
| Cc1ccc(O)c(Cn2c(NCCCN3CCOCC3)nc3ccc(CNc4cccnc4CCO)cc32)n1 [c-3] | 0.0316 |  |
| OCCc1ncccc1NCc1ccc2nc(NCCCN3CCOCC3)n(Cc3ncccc3O)c2c1 [e-1] | 0.2 |  |
